In test [1] the target is T1, BPSS2242 (Burkholderia pseudomallei, UniProt Q63I27).
The target in test [2] is T1, BPSS2242. This is another data set of the same source.

Each structure is given as a SMILES string.

T1 sequence (Q63I27 1-271 limits assumed): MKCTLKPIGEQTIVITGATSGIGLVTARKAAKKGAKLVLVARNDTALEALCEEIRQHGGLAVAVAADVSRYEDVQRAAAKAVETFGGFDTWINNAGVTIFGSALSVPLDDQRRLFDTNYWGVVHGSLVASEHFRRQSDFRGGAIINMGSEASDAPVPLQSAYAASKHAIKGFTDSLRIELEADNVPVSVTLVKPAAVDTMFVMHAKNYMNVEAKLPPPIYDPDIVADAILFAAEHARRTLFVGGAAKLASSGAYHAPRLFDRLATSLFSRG

Turning to `NC(=O)C1=CN([C@@H]2O[C@H](COP(=O)(O)OP(=O)(O)OC[C@H]3O[C@@H](n4cnc5c(N)ncnc54)[C@H](OP(=O)(O)O)[C@@H]3O)[C@@H](O)[C@H]2O)C=CC1` [NADPH], the Tm on BPSS2242 [1] came to 55.23 °C. For the molecule `CC(=O)C=O` [methylglyoxal], the “NADPH oxidation at 340 nm” value on BPSS2242 [2] is “BPSS2242 exhibited reductase activity toward diacetyl and methylglyoxal when NADPH was used”.

(Values after PMC7320009 (Scientific Reports, 2020).)
